Type in all cases: physicochemical
Series [1] can be described thus: Laser diffraction particle size analysis of recrystallized crystals. As to conditions: large scale batch, recrystallized from methanol, slow evaporation, isotherm 25° C. The text has this: As used herein, laser diffraction is the methodology used for measuring and analyzing particle size and size distribution of a sample or collection of particles (e.g., the recrystallized columnar crystals and the sized crystals). More specifically, a D10 value refers to the diameter at which 10% of the sample's mass is comprised of particles with a diameter less than this value. Likewise, a D50 value is the diameter of the particle that 50% of a sample's mass is smaller than and 50% of a sample's mass is larger than the value.
In histogram, D10, D50 and D90 are intercepts for 10%, 50% and 90% of the cumulative mass in the particles size. Since the density is the same for all particles, then the mass and volume are linearly related, thus the % remains the same. The method used also reports the cumulative distribution in volume.
Different large-scale batches were run to show the reproducibility of the recrystallization method. Laser diffraction results of particle size analysis for four large scale batches are below:
(§1) The laser diffraction method assumes an equivalent sphere when calculating the results. The aspect ratio in the imaging analysis show a range of aspect ratio from 3 to 50, while a majority of aspect ratios are in the range of 5-20.

A short description of series [2]: Imaging analysis of aspect ratio.
Description: as §1

Series [3] can be described thus: Particle size distribution by Malvern particle size analyzer (sized crystals). The following applies: after milling in rotor/stator homogenizer and sieving. The text has this: The milled crystals were then sieved through two separate sieves to eliminate fines or remnant large crystals. […] As shown, the drug crystal obtained have relatively narrow distribution and the minimal amount of fine material and absence of very fine material (no particles below 9 μm).

Molecules are shown by their SMILES. Some results are limits rather than exact numbers.

In the case of `CCC(=O)O[C@]1(C(=O)SCF)[C@H](C)C[C@H]2[C@@H]3C[C@H](F)C4=CC(=O)C=C[C@]4(C)[C@@]3(F)[C@@H](O)C[C@@]21C` [Batch 1, fluticasone propionate], in series [1], the D10 stood at 119 µm, the D50 worked out at 365 µm and the D90 stood at 876 µm.
For the molecule `CCC(=O)O[C@]1(C(=O)SCF)[C@H](C)C[C@H]2[C@@H]3C[C@H](F)C4=CC(=O)C=C[C@]4(C)[C@@]3(F)[C@@H](O)C[C@@]21C` [Batch 2, fluticasone propionate], in series [1], the D10 amounted to 97 µm, the D50 is 323 µm and the D90 is 838 µm.
For `CCC(=O)O[C@]1(C(=O)SCF)[C@H](C)C[C@H]2[C@@H]3C[C@H](F)C4=CC(=O)C=C[C@]4(C)[C@@]3(F)[C@@H](O)C[C@@]21C` [Batch 3, fluticasone propionate], in that order: 72 µm, 253 µm and 798 µm.
The matching figures for `CCC(=O)O[C@]1(C(=O)SCF)[C@H](C)C[C@H]2[C@@H]3C[C@H](F)C4=CC(=O)C=C[C@]4(C)[C@@]3(F)[C@@H](O)C[C@@]21C` [Batch 4, fluticasone propionate]: 82 µm, 288 µm and 820 µm.
With `CCC(=O)O[C@]1(C(=O)SCF)[C@H](C)C[C@H]2[C@@H]3C[C@H](F)C4=CC(=O)C=C[C@]4(C)[C@@]3(F)[C@@H](O)C[C@@]21C` [recrystallized fluticasone propionate, fluticasone propionate], in series [2] (majority of aspect ratios), the “aspect ratio, majority” value was 5-20. Further, the “aspect ratio, range” value in series [2] (whole range) was in the range of 3 to 50.
In the case of `CCC(=O)O[C@]1(C(=O)SCF)[C@H](C)C[C@H]2[C@@H]3C[C@H](F)C4=CC(=O)C=C[C@]4(C)[C@@]3(F)[C@@H](O)C[C@@]21C` [resized drug crystals, fluticasone propionate], the “smallest particle size (no particles below)” value in series [3] was no less than 9 μm.

Values taken from patent publication US20260241307A1, “PROCESS FOR MAKING DRUG CRYSTALS OF DESIRED SIZE DISTRIBUTION AND MORPHOLOGY” (EUPRAXIA PHARMACEUTICALS INC., priority 2019, published 2026).
